Laboratory results published in patent publication US12540143B2, “Methods and compositions for targeted protein degradation” (Ranok Therapeutics (Hangzhou) Co. Ltd., priority 2019, dated 2026).
Counter-ions that a name gives are not always drawn.

Experiments:
BRD4 = target: T1, BRD4 (Homo sapiens, UniProt O60885); experiment: BRD4 Degradation Flow Cytometry Assay in MV4-11 cells; format: cell-based; details: MV4-11 cells; for Percentage BRD4 degradation vs untreated / BRD4 (% of control): 24 hr; for Percentage BRD4 degradation vs untreated: highest degradation percentage observed at concentrations between 40-1000 nM; for BRD4 degradation (in words): flow cytometry
T1 construct: endogenous in cells; host or cells: MV4-11
Protocol: Protein Degradation Flow Cytometry
(§1) MV4-11 cells were plated in a 24-well tissue culture plate at a density of 350,000 cells/450 μL/well and incubated in 37° C./5% CO2 for 1 hr. Cells were then treated with compounds at various concentrations and incubated in 37° C./5% CO2 for 24 hr. Cells were harvested, washed once, counted and 200 μL of 1% paraformaldehyde/PBS was added and incubated for 15 min at room temperature. 200 μL of 1×PBS/0.4% Triton X-100 was added and incubated for 15 min at 4° C. Cells were washed three times and resuspended in 50 μL of 1×PBS/0.2% Triton X-100. 2 μL/10^6 cells of anti-BRD4 antibody (ABCAM, #128874) was added and mixed by pipetting up and down. Cells were incubated for 30 min at room temperature in the dark, washed three times and resuspended in 50 μL of 1×PBS/0.2% Triton X-100. Goat anti-rabbit IgG H&L antibody (1:2000 dilution) was added and mixed by pipetting up and down and incubated for 30 min at room temperature in the dark. Finally, cells were washed three times and resuspended in 200 μL of PBS for flow cytometric analysis.

MV4-11 cells = experiment: MV4-11 Cytotoxicity Assay; format: cell-based, human; details: Homo sapiens, MV4-11; 72 hr, CCK-8; read-out: MV4-11 cytotoxicity
BRD3 = target: T2, BRD3 (Homo sapiens, UniProt Q15059); experiment: BET Protein Family Degradation Flow Cytometry Assay (BRD3) in MV4-11 cells; format: cell-based; details: 24 hr
T2 construct: endogenous in cells; host or cells: MV4-11
Protocol: as §1
(§2) Similar western blotting experiments of for BRD2 and BRD3 were performed in MV4-11 cells using anti-BRD2 (Cell Signaling Technology, #139690) and anti-BRD3 (Cell Signaling Technology, #50818).

BRD2 = target: T3, BRD2 (Homo sapiens, UniProt P25440); experiment: BET Protein Family Degradation Flow Cytometry Assay (BRD2) in MV4-11 cells; format: cell-based; details: 24 hr
T3 construct: endogenous in cells; host or cells: MV4-11
Protocol: as §1, §2

[1] = system: SU-DHL-4 diffuse large B-cell lymphoma xenograft; experiment: SU-DHL-4 DLBCL xenograft model in mice
Protocol: 10 μL the cell proliferation reagent CCK-8 (WST-8) was added into each well and incubated at 37° C./5% CO2 for 3-4 hr and the absorbance at 450 nm measured with an En Vision Plate Reader.
5×10^6 MV-4-11 or 1×10^7 SU-DHL-4 cells were collected and re-suspended in 0.1 mL of serum-free media with Matrigel (1:1 v/v) per mouse for subcutaneous inoculation in isoflurane anesthetized male BALB/c nude or C.B-17 scid mice, respectively (treated in accordance with AAALAC animal welfare guidelines). When the average tumor volumes reached 100-200 mm^3, tumor volume outliers were removed and the remaining animals randomly divided into groups of 6-8 with similar average tumor volumes in each group. […] Animals were intravenously dosed at 25 mg/kg, 50 mg/kg or 100 mg/kg 1×/week for 3 or 4 weeks. The appearance and behavior of each mouse was observed and recorded daily. Body weights and tumor volumes were measured and recorded every 2-4 days and the results were expressed as group means±SEM. Pairwise statistical comparisons between groups were performed by one-way ANOVA, and p<0.05 was considered statistically significant.

[2] = system: MV4-11 acute myeloid leukemia xenograft; experiment: MV4-11 AML xenograft model in mice; details: 25 mg/kg intraperitoneal 1×/day
Protocol: MV4-11 cells were plated in a 96-well tissue culture plate at a density of 4,500 cells/90 μL/well and incubated at 37° C./5% CO2 for 24 hr. Cells were then treated with compounds at various concentrations (a 10-point, 3-fold serial dilution series starting at 20 μM) with a final concentration of 0.5% DMSO/well and then incubated in 37° C./5% CO2 for 72 hr. 10 μL the cell proliferation reagent CCK-8 (WST-8) was added into each well and incubated at 37° C./5% CO2 for 3-4 hr and the absorbance at 450 nm measured with an En Vision Plate Reader.
MV4-11 acute myeloid leukemia and SU-DHL-4 diffuse large B-cell lymphoma (ATCC, #CRL-2957) cells were cultured in medium supplemented with 10% fetal bovine serum at 37° C./5% CO2. 5×10^6 MV-4-11 or 1×10^7 SU-DHL-4 cells were collected and re-suspended in 0.1 mL of serum-free media with Matrigel (1:1 v/v) per mouse for subcutaneous inoculation in isoflurane anesthetized male BALB/c nude or C.B-17 scid mice, respectively (treated in accordance with AAALAC animal welfare guidelines). When the average tumor volumes reached 100-200 mm^3, tumor volume outliers were removed and the remaining animals randomly divided into groups of 6-8 with similar average tumor volumes in each group. […] The appearance and behavior of each mouse was observed and recorded daily. Body weights and tumor volumes were measured and recorded every 2-4 days and the results were expressed as group means±SEM. Pairwise statistical comparisons between groups were performed by one-way ANOVA, and p<0.05 was considered statistically significant.

[3] = 100 mg/kg intravenous 1×/week, after 4 weeks of dosing

T3 sequence (P25440 whole entry): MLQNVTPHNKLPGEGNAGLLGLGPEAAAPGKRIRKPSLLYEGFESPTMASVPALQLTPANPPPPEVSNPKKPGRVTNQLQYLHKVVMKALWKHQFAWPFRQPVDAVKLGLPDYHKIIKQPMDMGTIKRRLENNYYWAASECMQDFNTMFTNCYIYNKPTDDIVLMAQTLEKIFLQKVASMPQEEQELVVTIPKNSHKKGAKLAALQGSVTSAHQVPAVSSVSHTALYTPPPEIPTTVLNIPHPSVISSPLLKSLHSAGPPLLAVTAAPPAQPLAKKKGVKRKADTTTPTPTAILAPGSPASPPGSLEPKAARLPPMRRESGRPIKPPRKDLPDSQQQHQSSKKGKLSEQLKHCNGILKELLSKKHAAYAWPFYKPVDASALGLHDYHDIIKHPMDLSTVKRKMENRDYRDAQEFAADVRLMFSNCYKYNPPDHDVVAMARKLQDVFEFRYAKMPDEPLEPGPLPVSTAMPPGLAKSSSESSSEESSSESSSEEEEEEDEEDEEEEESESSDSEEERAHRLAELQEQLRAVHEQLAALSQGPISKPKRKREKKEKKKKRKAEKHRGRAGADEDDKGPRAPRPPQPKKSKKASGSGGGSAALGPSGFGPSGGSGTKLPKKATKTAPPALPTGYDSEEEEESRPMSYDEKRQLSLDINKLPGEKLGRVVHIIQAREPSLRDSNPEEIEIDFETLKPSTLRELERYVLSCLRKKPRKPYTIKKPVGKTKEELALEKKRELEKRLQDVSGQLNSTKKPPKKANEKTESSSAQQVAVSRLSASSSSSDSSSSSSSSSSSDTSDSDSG
T2 sequence (Q15059 whole entry): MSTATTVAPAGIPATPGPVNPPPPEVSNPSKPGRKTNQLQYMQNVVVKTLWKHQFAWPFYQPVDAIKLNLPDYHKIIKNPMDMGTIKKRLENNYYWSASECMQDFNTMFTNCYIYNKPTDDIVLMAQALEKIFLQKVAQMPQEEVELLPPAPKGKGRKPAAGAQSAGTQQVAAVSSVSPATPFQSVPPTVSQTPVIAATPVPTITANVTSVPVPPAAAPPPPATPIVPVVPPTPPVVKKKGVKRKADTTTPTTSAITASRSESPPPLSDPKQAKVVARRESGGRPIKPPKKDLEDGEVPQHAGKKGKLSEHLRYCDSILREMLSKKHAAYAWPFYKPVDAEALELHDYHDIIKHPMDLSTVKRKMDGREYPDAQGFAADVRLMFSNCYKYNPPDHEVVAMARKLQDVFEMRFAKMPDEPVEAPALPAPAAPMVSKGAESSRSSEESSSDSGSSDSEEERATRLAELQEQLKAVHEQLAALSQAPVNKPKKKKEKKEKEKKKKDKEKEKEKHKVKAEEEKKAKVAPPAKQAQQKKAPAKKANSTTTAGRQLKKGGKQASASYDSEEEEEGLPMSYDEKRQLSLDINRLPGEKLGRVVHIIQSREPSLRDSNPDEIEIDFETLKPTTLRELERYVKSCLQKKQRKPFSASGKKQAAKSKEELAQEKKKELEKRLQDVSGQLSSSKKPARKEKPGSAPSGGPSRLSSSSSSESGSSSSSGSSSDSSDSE

Question: For CCc1cc(-c2nnc(O)n2-c2ccc(CN3CCN(CC4CCN(C(=O)C[C@@H]5N=C(c6ccc(Cl)cc6)c6c(sc(C)c6C)-n6c(C)nnc65)CC4)CC3)cc2)c(O)cc1O [Compound 1, 2-((6S)-4-(4-chlorophenyl)-2,3,9-trimethyl-6H-thieno[3,2-f][1,2,4]triazolo[4,3-a][1,4]diazepin-6-yl)-1-(4-((4-(4-(3-(5-ethyl-2,4-dihydroxyphenyl)-5-hydroxy-4H-1,2,4-triazol-4-yl)benzyl)piperazin-1-yl)methyl)piperidin-1-yl)ethanone], which “Percentage BRD4 degradation vs untreated” value (BRD4) is on record?
Answer: The value was “A (Degradation > 50%)”.

Question: How did the “Percentage BRD4 degradation vs untreated” value (BRD4) turn out when Cc1cc(-c2nnc(O)n2-c2ccc(CN3CCN(CC4CCN(C(=O)C[C@@H]5N=C(c6ccc(Cl)cc6)c6c(sc(C)c6C)-n6c(C)nnc65)CC4)CC3)cc2)c(O)cc1O [Compound 9, 2-((6S)-4-(4-chlorophenyl)-2,3,9-trimethyl-6H-thieno[3,2-f][1,2,4]triazolo[4,3-a][1,4]diazepin-6-yl)-1-(4-((4-(4-(3-(2,4-dihydroxy-5-methylphenyl)-5-hydroxy-4H-1,2,4-triazol-4-yl)benzyl)piperazin-1-yl)methyl)piperidin-1-yl)ethanone, trifluoroacetic acid] was run?
Answer: Its value is “B (10% < Degradation = 10-50%)”.

Question: And the IC50 (MV4-11 cells)?
Answer: Its IC50 is < 100 nM.

Question: What does the source list for Cc1sc2c(c1C)C(c1ccc(Cl)cc1)=N[C@@H](CC(=O)NCCc1ccc(-n3c(O)nnc3-c3cc(C(C)C)c(O)cc3O)cc1)c1nnc(C)n1-2 [Compound 39, 2-((6S)-4-(4-chlorophenyl)-2,3,9-trimethyl-6H-thieno[3,2-f][1,2,4]triazolo[4,3-a][1,4]diazepin-6-yl)-N-(4-(3-(2,4-dihydroxy-5-isopropylphenyl)-5-hydroxy-4H-1,2,4-triazol-4-yl)phenethyl)acetamide]?
Answer: Percentage BRD4 degradation vs untreated (BRD4): C (Degradation < 10%); IC50 (MV4-11 cells): < 100 nM

Question: Which results are given for Cc1sc2c(c1C)C(c1ccc(Cl)cc1)=N[C@@H](CC(=O)NCC(=O)NCC1CCN(C(=O)C3CCN(Cc4ccc(-n5c(O)nnc5-c5cc(C(C)C)c(O)cc5O)cc4)CC3)CC1)c1nnc(C)n1-2 [Compound 46, (S)-2-(4-(4-chlorophenyl)-2,3,9-trimethyl-6H-thieno[3,2-f][1,2,4]triazolo[4,3-a][1,4]diazepin-6-yl)-N-(2-(((1-(1-(4-(3-(2,4-dihydroxy-5-isopropylphenyl)-5-hydroxy-4H-1,2,4-triazol-4-yl)benzyl)piperidine-4-carbonyl)piperidin-4-yl)methyl)amino)-2-oxoethyl)acetamide, trifluoroacetic acid]?
Answer: Percentage BRD4 degradation vs untreated (BRD4): A (Degradation > 50%); IC50 (MV4-11 cells): < 100 nM

Question: Cc1sc2c(c1C)C(c1ccc(Cl)cc1)=N[C@@H](CC(=O)NCC(=O)NCC1CCN(C(=O)C3CCN(Cc4ccc(-n5c(O)nnc5-c5cc(C(C)C)c(O)cc5O)cc4)CC3)C1)c1nnc(C)n1-2 (stereo partly drawn) [Compound 47, 2-((S)-4-(4-chlorophenyl)-2,3,9-trimethyl-6H-thieno[3,2-f][1,2,4]triazolo[4,3-a][1,4]diazepin-6-yl)-N-(2-(((1-(1-(4-(3-(2,4-dihydroxy-5-isopropylphenyl)-5-hydroxy-4H-1,2,4-triazol-4-yl)benzyl)piperidine-4-carbonyl)pyrrolidin-3-yl)methyl)amino)-2-oxoethyl)acetamide, trifluoroacetic acid] was tested. Which “BRD3 (% of control)” value (BRD3; 100 nM) did it give?
Answer: The value was 95.0 % of control.

Question: And the “BRD3 (% of control)” value (BRD3; 300 nM)?
Answer: The value was 91.4 % of control.

Question: What about the “BRD2 (% of control)” value (BRD2; 100 nM) of the same compound?
Answer: The value was 81.2 % of control.

Question: What about the “BRD2 (% of control)” value (BRD2; 300 nM) of the same compound?
Answer: Its value is 102.2 % of control.

Question: What about the “BRD4 (% of control)” value (BRD4; 100 nM) of the same compound?
Answer: Its value is 17.3 % of control.

Question: And the “BRD4 (% of control)” value (BRD4; 300 nM)?
Answer: Its value is 9.6 % of control.

Question: And the IC50 (MV4-11 cells)?
Answer: The IC50 was < 100 nM.

Question: Which results are given for CCc1cc(-c2nnc(C(=O)NCC(F)(F)F)n2-c2ccc(CN3CCN(CC4CCN(C(=O)C[C@@H]5N=C(c6ccc(Cl)cc6)c6c(sc(C)c6C)-n6c(C)nnc65)CC4)CC3)cc2)c(O)cc1O.Cl [Compound 78, 4-(4-((4-((1-(2-((6S)-4-(4-chlorophenyl)-2,3,9-trimethyl-6H-thieno[3,2-f][1,2,4]triazolo[4,3-a][1,4]diazepin-6-yl)acetyl)piperidin-4-yl)methyl)piperazin-1-yl)methyl)phenyl)-5-(5-ethyl-2,4-dihydroxyphenyl)-N-(2,2,2-trifluoroethyl)-4H-1,2,4-triazole-3-carboxamide hydrochloride]?
Answer: tumor growth inhibition (FIG. 4a) [1, 3]: significant tumor growth inhibition; tumor vs control (T/C) value [1, 3]: 28%; animal deaths and body weights (FIG. 4b) ([1]; any dose level, SU-DHL-4 xenograft): No animal deaths or significant effects on body weights were observed

Question: For CCNC(=O)c1noc(-c2cc(C(C)C)c(O)cc2O)c1-c1ccc(CN2CCN(CC3CCN(C(=O)C[C@@H]4N=C(c5ccc(Cl)cc5)c5c(sc(C)c5C)-n5c(C)nnc54)CC3)CC2)cc1 [Compound 126, (S)-4-(4-((4-((1-(2-(4-(4-chlorophenyl)-2,3,9-trimethyl-6H-thieno[3,2-f][1,2,4]triazolo[4,3-a][1,4]diazepin-6-yl)acetyl)piperidin-4-yl)methyl)piperazin-1-yl)methyl)phenyl)-5-(2,4-dihydroxy-5-isopropylphenyl)-N-ethylisoxazole-3-carboxamide hydrochloride], which IC50 (MV4-11 cells) is on record?
Answer: The IC50 was < 100 nM.

Question: How did the “Percentage BRD4 degradation vs untreated” value (BRD4) turn out when CC(=O)N1CCC(CN2CCN(Cc3ccc(-n4c(O)nnc4-c4cc(C(C)C)c(O)cc4O)cc3)CC2)CC1 [HSP90 binder, 1-(4-((4-(4-(3-(2,4-dihydroxy-5-isopropylphenyl)-5-hydroxy-4H-1,2,4-triazol-4-yl)benzyl)piperazin-1-yl)methyl)piperidin-1-yl)ethan-1-one, reference compound] was run?
Answer: Its value is “C (Degradation < 10%)”.

Question: And the “BRD4 degradation (in words)” value (BRD4)?
Answer: Its value is “no substantial BRD4 degradation was observed”.

Question: For Cc1sc2c(c1C)C(c1ccc(Cl)cc1)=N[C@@H](CC(=O)NCCCCNC(=O)COc1cccc3c1C(=O)N(C1CCC(=O)NC1=O)C3=O)c1nnc(C)n1-2 (some centres unmarked) [dBET1], which “BRD3 (% of control)” value (BRD3; 3 nM) is on record?
Answer: Its value is 89.7 % of control.

Question: And the “BRD3 (% of control)” value (BRD3; 10 nM)?
Answer: The value was 43.2 % of control.

Question: And the “BRD3 (% of control)” value (BRD3; 30 nM)?
Answer: The value was 14.5 % of control.

Question: What about the “BRD3 (% of control)” value (BRD3; 100 nM) of the same compound?
Answer: Its value is 1.4 % of control.

Question: What about the “BRD3 (% of control)” value (BRD3; 300 nM) of the same compound?
Answer: Its value is 0.3 % of control.

Question: What about the “BRD2 (% of control)” value (BRD2; 3 nM) of the same compound?
Answer: Its value is 96.4 % of control.

Question: And the “BRD2 (% of control)” value (BRD2; 10 nM)?
Answer: Its value is 94.9 % of control.

Question: What about the “BRD2 (% of control)” value (BRD2; 30 nM) of the same compound?
Answer: The value was 55.1 % of control.

Question: And the “BRD2 (% of control)” value (BRD2; 100 nM)?
Answer: The value was 9.3 % of control.

Question: What about the “BRD2 (% of control)” value (BRD2; 300 nM) of the same compound?
Answer: Its value is 0.5 % of control.

Question: Which tumor growth inhibition [2] does the source give for (+)-JQ1 [reference compound] here?
Answer: The tumor growth inhibition was “moderate tumor growth inhibition”.

Question: What about the “BRD4 degradation (in words)” value (BRD4) of the same compound?
Answer: The value was “no substantial BRD4 degradation was observed”.
